According to patent US20240197700A1, “Methods and Compositions for Treating Lysosomal Storage Disorders” (Sanford Health, priority 2021, published 2024):
Entries after “also recorded” stand apart in the source; their conditions may differ.

How the values were obtained:
[1] = test system: TFE3; test: TFE3 nuclear translocation time course in transfected N2A cells; type: cell-based, mouse; conditions: for TFE3 nuclear translocation (i.e., activation): overall statement, GFP-TFE3 transfected N2A cells, acute treatment
Description: Treatment with AF38469 stimulates TFE3 nuclear translocation as monitored via time course study. For (A) and (B), wild type N2A cells were plated and transfected with a pEGFP-N1-TFE3 plasmid for a 24-hour incubation. Cells were treated with vehicle or AF38469 (40 nM, 400 nM) for three hours then immunocytochemistry was performed with anti-GFP (Abcam, ab13970) and 4′, -diamidino-2-phenylindole-dihydrochloride (DAPI). Cells were imaged on the Nikon AIR confocal microscope. For (C), wild type N2A cells were plated and transfected with a pEGFP-N1-TFE3 plasmid for a 24-hour incubation. Cells were dyed and imaged on the CellInsight™ CX7 High-Content Screening Platform (CX7) then treated with media containing vehicle or AF38469 (40 nM, 400 nM). Cells were imaged every 30 minutes for three hours on the CX7 with incubation between imaging sessions, and results were quantified. The statistics were analyzed using Graphpad Prism™. One-way ANOVA. Mean±S.E.M. Dunnett's multiple comparisons test compared to the vehicle treated group. *p<0.05, **p<0.01, ***p<0.001, ****p<0.0001. […] TFEB is a transcription factor that stimulates transcription of genes that are necessary for lysosomal biogenesis and function. Thus, increased TFE3 nuclear translocation is expected to stimulate lysosomal biogenesis and function.
Since LM11A-31 improves lysosomal health and function across diverse cell models of lysosomal storage disorders, we asked whether the drug could be activating transcriptional networks that regulate lysosomal function. The transcription factors TFEB and TFE3 are master regulators of lysosomal biogenesis and function. We hypothesized that LM11A-31 could exert benefits by modulating the nuclear translocation of TFEB and/or TFE3. We tested this in an in vitro system in which GFP fusions of TFEB or TFE3 are expressed and monitored with live imaging (FIG. 15A).

[2] = test system: Cln3^Δex7/8 mice; test: Autofluorescent storage material (ASM) in brain of Cln3^Δex7/8 mice; type: in vivo, mouse; conditions: 16 weeks; for auto florescent storage material: LM11A-31 0.6 mg/mL in drinking water
Description: FIG. 16. Effects of treatment with LM11A-31 on auto florescent storage material. […] Upon sacrifice, one hemisphere of brain was sectioned at 50 microns on a vibratome; DAB staining immunohistochemistry was then performed using anti-GFAP (Dako, Z0334; 1:5000), anti-CD68 (AbD Serotec, MCA1957; 1:2000), anti-rabbit biotinylated (Vector Labs. BA-1000 1:1000), and anti-rat (Vector Labs, BA-9400 1:1000). Sections were imaged and analyzed using an Aperio Digital Pathology Slide Scanner (AT2) and associated software. The flash-frozen brain was sectioned into 16 μm slices and placed on slides. Slides were post-fixed for 20 minutes in chilled 10% neutral buffered formalin (NBF) and underwent serial ethanol dehydration. To quantify accumulation of autofluorescent storage material, DAPI was applied to slides and coverslipped with aqueous mounting media (Dako Faramount, Agilent, S302580-2). Sections were imaged using a Nikon NiE microscope and associated software. […] Nested one-way ANOVA. Mean±S.E.M. Sidak's multiple comparisons test. Compared to the wild type vehicle treated group. #p<0.05, ##p<0.01, ###p<0.001, ####p<0.0001. Compared to mutant vehicle treated group. *p<0.05, **p<0.01, ***p<0.001, ****p<0.0001. Scale bar=100 μm.
Since LM11A-31 reduced lysosomal pathology and increased lysosomal function in cell models of diverse lysosomal storage disorders, we asked whether treatment with LM11A-31 could reduce histopathological markers of disease severity in animal models of CLN3-Batten disease. […] Sections were imaged and analyzed using an Aperio Digital Pathology Slide Scanner (AT2) and associated software. […] To quantify accumulation of autofluorescent storage material, DAPI was applied to slides and coverslipped with aqueous mounting media (Dako Faramount, Agilent, S302580-2). […]
Specific experimental details are included in figure legends. […] Body weight was measured at 4, 6, 8, 12, and 16 weeks of age. […]

Cc1cccc(NC(=O)c2ccc(C(F)(F)F)cc2C(=O)O)n1 [AF38469, 2-((6-methylpyridin-2-yl)carbamoyl)-5-(trifluoromethyl)benzoic acid]
TFE3 nuclear translocation ([1]; 40 nM and 400 nM, 90 minutes of incubation, N2A cells, vs vehicle): significant increase
TFE3 nuclear translocation ([1]; 40 nM, 180 minutes of incubation, N2A cells): return to baseline
TFE3 nuclear translocation ([1]; 400 nM, 180 minutes of incubation, N2A cells): trend towards increased nuclear translocation
TFE3 nuclear translocation (i.e., activation) [1]: stimulates

CC[C@H](C)[C@H](N)C(=O)NCCN1CCOCC1 [LM11A-31, N-[2-(morpholin-4-yl)ethyl]-L-isoleucinamide]
TFE3 nuclear translocation ([1]; 100 nM and 1 μM, 90 minutes of incubation): significant increase
TFE3 nuclear translocation (i.e., activation) [1]: stimulated
auto florescent storage material ([2]; S1BF, CA3, or motor cortex): did not decrease
auto florescent storage material ([2]; VPM/VPL and visual cortex): reduced ASM to levels that were not statistically distinguishable from wild type; also recorded: slight decrease

semaglutide
accumulation of autofluorescent storage material (ASM) ([2]; semaglutide 2.571 μg/mouse, 25.71 μg/mouse s.c. three times a week, S1BF, CA3, VPM/VPL): had no significant effect
